Patent US20240350458A1, “14-3-3 PROTEIN MODULATORS AS ANTITUMOR AGENTS” (priority 2021, published 2024)
“Also recorded” adds a separate entry of the source.

Assays:
14-3-3 [1] = test: DARTS in U87MG cells; format: binding; conditions: 5 μM, 2 h, MS and western blot
Experimental: FIG. 5 represents DARTS experiments results as reported in example 6: Proteins obtained from U87MG cells incubated with 5 μM of FC86 or with the medium for 2 h underwent subtilisin-catalyzed digestion.
(§1) Current protocols in chemical biology 2011, 3:163-180]. […] The same DARTS experiments were also performed by incubating glioblastoma cell lines (U87MG) with subtoxic amounts of FC86 and data collected confirmed the 14-3-3 as target protein. (FIG. 5).
(§2) The identification of putative targets of FC86 was achieved by Drug Affinity Responsive Target Stability (DARTS) experiments. Cancer cells were incubated with a sub-toxic concentration (50 nM for U937 and 5 μM for U87MG) of FC86 for 2 h or with the medium (control cells). After the treatments, treated and control cells were collected and whole protein extracts were prepared by lysing cells in 20 mM Tris-HCl (pH 7.5), 150 mM NaCl, 1 mM EDTA, 1 mM EGTA, 1% NP-40, 1% sodium deoxycholate, 2.5 mM sodium pyrophosphate, 1 mM β-glycerophosphate, 1 mM Na3VO4, 1 μg/ml leupeptin. Protein concentration was determined by the Bradford protein assay using bovine serum albumin as standard. […] Parameters sets were: trypsin cleavage; carbamidomethylation of cysteine as a fixed modification and methionine oxidation as a variable modification; a maximum of two missed cleavages; false discovery rate (FDR), calculated by searching the decoy database, 0.05. […]

FARAGE = test: MTT proliferation assay, B-cell lymphoma cell line; format: cell-based; conditions: 72 h of drug incubation
Experimental: (§3) All the above compounds were tested in vitro for their anticancer activity against a panel of eight B-cell lymphoma cell lines by MTT proliferation assay. The tested cell lines belonging to mantle cell lymphoma (MCL: REC1, Z138), activated B-cell diffuse large B-cell lymphoma (ABC-DLBCL: R11, HBL1, U2932, TMD8), germinal center B-cell diffuse large B-cell lymphoma (GCB-DLBCL: SU-DHL-10, FARAGE) subtypes. In overall, MCL cell lines present Cyclin D1 overexpression, while ABC- and GCB-DLBCL's proliferation is BCR and BCL6/HDACs driven, respectively. At the RNA level, all tested lymphoma cell lines were characterized by an overexpression of 14-3-3 zeta as reported for B-cell lymphomas resistant to chemotherapeutic regimen.

Z138 = test: MTT proliferation assay, B-cell lymphoma cell line; format: cell-based; conditions: Homo sapiens, Z-138; Z138, 72 h of drug incubation
Experimental: as §3

HBL1 = test: MTT proliferation assay, B-cell lymphoma cell line; format: cell-based; conditions: HBL1, 72 h of drug incubation
Experimental: as §3

TMD8 = test: MTT proliferation assay, B-cell lymphoma cell line; format: cell-based; conditions: Homo sapiens; TMD8, 72 h of drug incubation
Experimental: as §3

U2932 = test: MTT proliferation assay, B-cell lymphoma cell line; format: cell-based; conditions: Homo sapiens; U2932, 72 h of drug incubation
Experimental: as §3

SUDHL10 = test: MTT proliferation assay, B-cell lymphoma cell line; format: cell-based; conditions: Homo sapiens, SU-DHL10; SUDHL10, 72 h of drug incubation
Experimental: as §3

REC1 = test: MTT proliferation assay, B-cell lymphoma cell line; format: cell-based; conditions: Homo sapiens; REC1, 72 h of drug incubation
Experimental: as §3

RI1 = test: MTT proliferation assay, B-cell lymphoma cell line; format: cell-based; conditions: Ri-1; RI1, 72 h of drug incubation
Experimental: as §3

[2] = system: human lymphoma cell line TMD8; test: Lymphoma xenograft in Nod-Scid mice; format: in vivo; conditions: 100 mg/kg oral gavage once daily, five times per week
Experimental: FIG. 6 reports ADME-TOX profiling of compounds FC91, FC85, and FC86 as explained in example 7 FIG. 7 reports the inhibition of the compound FC86 on tumor growth in xenograft models of lymphoma (TMD8 engrafted in NOD-Scid mice); vehicle group (blue line), n=9 mice; FC86 treated group (red line), n=9 mice (Example 8). Tumor volume expressed in cubic mm plus SEM (Student t-test); p<0.01.
To this purpose, the compound was administered by oral gavage to Nod-Scid mice engrafted with the human lymphoma cell line TMD8 (15 millions of cells in 100 uL PBS/mouse). […] Body conditions were not affected by the treatments.

[3] = system: ATC-derived cell lines (Sw, FRO, 8505c); test: MTT proliferation assay, three ATC-derived cell lines; format: cell-based; conditions: Homo sapiens; three ATC-derived cell lines (Sw, FRO, 8505c), 72 h; read-out: IC50 value after 72 h exposure
Experimental: The antiproliferative activity was assessed by MTT proliferation assay (Table III) The anticancer activity was also investigated in a rare and lethal cancer (i.e. anaplastic thyroid cancer) by the use of three ATC-derived cell lines (Sw, FRO, 8505c). Again, the IC50 value after 72 h exposure was in the range of 10 to 50 nM. The same trend was also observed in four melanoma cell lines A2058, M14 (genotype BRAFV600E), SKMEL 197 e MEWO (genotype BRAF wild-type).

14-3-3 [4] = test: DARTS in U937 cells; format: binding; conditions: 50 nM, 2 h, MS and western blot
Experimental: FIG. 4 represents DARTS experiments results as reported in example 6: Proteins obtained from U937 cells incubated with 50 nM FC86 or with the medium for 2 h underwent subtilisin-catalyzed digestion.
as §1, §2

Cc1ccc(S(=O)(=O)Nc2ccc3c(c2)/C(=C/c2cccs2)C(=O)N3)cc1 [FC86, N-[(3Z)-2-oxo-3-(thiophene-2-ylmethylidene)-2,3-dihydro-1H-indol-5-yl]-4-methylbenzenesulfonamide]
resistance of 14-3-3 to subtilisin proteolysis (DARTS) (14-3-3 [1]): significant increment of resistance to proteolysis
IC50 (FARAGE): 15 nM
IC50 (Z138): 25 nM
IC50 (HBL1): 25 nM
IC50 (TMD8): 20 nM
IC50 (U2932): 20 nM
IC50 (SUDHL10): 25 nM
IC50 (REC1): 10 nM
IC50 (RI1): 25 nM
body conditions [2]: not affected
tumor size vs vehicle at the end of the study [2]: two times smaller
tumor growth inhibition ([2]; p<0.01): significantly inhibit tumor growth
IC50 [3]: 10 to 50 nM
resistance of 14-3-3 to subtilisin proteolysis (DARTS) (14-3-3 [4]): significant protection from proteolysis; also recorded: significant increment of resistance to proteolysis
